Measurements as given in the NIST ThermoML archive (doi:10.1021/acs.jced.8b00812).
Numbers after ± are expanded uncertainties.

Conditions: Liquid; for viscosity: Capillary tube (Ostwald / Ubbelohde) method; for mass density: Vibrating tube method

CCCCCCCO [heptan-1-ol]
Conditions | mass density [kg/m3] | viscosity [mPa·s]
298.15 K, 2000 kPa | 820.2 ± 0.9 | 5.971 ± 0.069
298.15 K, 4020 kPa | 821.4 ± 0.9 | 6.1 ± 0.071
298.15 K, 6010 kPa | 822.8 ± 0.9 | 6.229 ± 0.072
298.15 K, 8000 kPa | 824 ± 0.9 | 6.364 ± 0.073
298.15 K, 10000 kPa | 825.3 ± 0.9 | 6.484 ± 0.075
298.15 K, 13000 kPa | 827.1 ± 0.9 | 6.686 ± 0.077
298.15 K, 16000 kPa | 828.9 ± 0.9 | 6.881 ± 0.079
298.15 K, 19000 kPa | 830.7 ± 0.9 | 7.084 ± 0.081
298.15 K, 22000 kPa | 832.5 ± 0.9 | 7.293 ± 0.084
298.15 K, 25000 kPa | 834.2 ± 0.9 | 7.516 ± 0.086
298.15 K, 28000 kPa | 835.9 ± 0.9 | 7.72 ± 0.088
298.15 K, 29990 kPa | 836.9 ± 0.9 | 7.864 ± 0.09
303.16 K, 2030 kPa | 816.5 ± 0.9 | 5.186 ± 0.06
303.16 K, 4030 kPa | 817.9 ± 0.9 | 5.302 ± 0.062
303.16 K, 6040 kPa | 819.3 ± 0.9 | 5.42 ± 0.063
303.16 K, 7980 kPa | 820.5 ± 0.9 | 5.534 ± 0.064
303.16 K, 9990 kPa | 821.8 ± 0.9 | 5.651 ± 0.066
303.16 K, 12990 kPa | 823.6 ± 0.9 | 5.826 ± 0.067
303.16 K, 16020 kPa | 825.5 ± 0.9 | 6.004 ± 0.069
303.16 K, 19020 kPa | 827.3 ± 0.9 | 6.179 ± 0.071
303.16 K, 22000 kPa | 829.2 ± 0.9 | 6.353 ± 0.073
303.16 K, 24980 kPa | 830.9 ± 0.9 | 6.527 ± 0.075
303.16 K, 27980 kPa | 832.5 ± 0.9 | 6.703 ± 0.077
303.16 K, 30010 kPa | 833.7 ± 0.9 | 6.822 ± 0.079
313.15 K, 2000 kPa | 809.2 ± 0.8 | 3.763 ± 0.044
313.15 K, 4000 kPa | 810.6 ± 0.9 | 3.848 ± 0.045
313.15 K, 5980 kPa | 811.9 ± 0.9 | 3.932 ± 0.046
313.15 K, 7980 kPa | 813.3 ± 0.9 | 4.017 ± 0.047
313.15 K, 9970 kPa | 814.6 ± 0.9 | 4.101 ± 0.048
313.15 K, 13030 kPa | 816.5 ± 0.9 | 4.231 ± 0.049
313.15 K, 16020 kPa | 818.4 ± 0.9 | 4.358 ± 0.051
313.15 K, 19000 kPa | 820.4 ± 0.9 | 4.484 ± 0.052
313.15 K, 22020 kPa | 822.2 ± 0.9 | 4.613 ± 0.054
313.15 K, 25010 kPa | 824 ± 0.9 | 4.739 ± 0.055
313.15 K, 27980 kPa | 825.7 ± 0.9 | 4.865 ± 0.057
313.15 K, 30010 kPa | 826.9 ± 0.9 | 4.952 ± 0.058
323.15 K, 1990 kPa | 802.1 ± 0.8 | 2.748 ± 0.032
323.15 K, 4010 kPa | 803.4 ± 0.8 | 2.812 ± 0.033
323.15 K, 5990 kPa | 804.8 ± 0.9 | 2.876 ± 0.034
323.15 K, 8010 kPa | 806.2 ± 0.9 | 2.94 ± 0.034
323.15 K, 10010 kPa | 807.6 ± 0.9 | 2.997 ± 0.035
323.15 K, 13000 kPa | 809.7 ± 0.9 | 3.088 ± 0.036
323.15 K, 16000 kPa | 811.8 ± 0.9 | 3.179 ± 0.037
323.15 K, 18990 kPa | 813.7 ± 0.9 | 3.266 ± 0.038
323.15 K, 22000 kPa | 815.6 ± 0.9 | 3.358 ± 0.039
323.15 K, 25000 kPa | 817.4 ± 0.9 | 3.451 ± 0.04
323.15 K, 28000 kPa | 819.3 ± 0.9 | 3.542 ± 0.042
323.15 K, 30000 kPa | 820.5 ± 0.9 | 3.607 ± 0.042

CCCCCCCCCO [nonan-1-ol]
Conditions | mass density [kg/m3] | viscosity [mPa·s]
298.15 K, 1990 kPa | 825.5 ± 0.9 | 9.285 ± 0.11
298.15 K, 3990 kPa | 826.7 ± 0.9 | 9.511 ± 0.12
298.15 K, 6000 kPa | 828 ± 0.9 | 9.746 ± 0.12
298.15 K, 8010 kPa | 829.2 ± 0.9 | 9.958 ± 0.12
298.15 K, 10010 kPa | 830.5 ± 0.9 | 10.17 ± 0.12
298.15 K, 13000 kPa | 832.2 ± 0.9 | 10.51 ± 0.13
298.15 K, 16000 kPa | 833.9 ± 0.9 | 10.85 ± 0.13
298.15 K, 19010 kPa | 835.5 ± 0.9 | 11.2 ± 0.14
298.15 K, 21990 kPa | 837.1 ± 1 | 11.56 ± 0.14
298.15 K, 25000 kPa | 838.7 ± 1 | 11.93 ± 0.14
298.15 K, 28020 kPa | 840.2 ± 1 | 12.28 ± 0.15
298.15 K, 30020 kPa | 841.1 ± 1 | 12.51 ± 0.15
303.14 K, 27980 kPa | 836.9 ± 1 | 11.13 ± 0.14
303.15 K, 2010 kPa | 822 ± 0.9 | 8.424 ± 0.1
303.15 K, 4010 kPa | 823.2 ± 0.9 | 8.633 ± 0.11
303.15 K, 6020 kPa | 824.5 ± 0.9 | 8.843 ± 0.11
303.15 K, 8030 kPa | 825.7 ± 0.9 | 9.053 ± 0.11
303.15 K, 9990 kPa | 826.9 ± 0.9 | 9.257 ± 0.11
303.15 K, 12980 kPa | 828.7 ± 0.9 | 9.568 ± 0.12
303.15 K, 15970 kPa | 830.4 ± 0.9 | 9.88 ± 0.12
303.15 K, 19020 kPa | 832.1 ± 0.9 | 10.2 ± 0.12
303.15 K, 22010 kPa | 833.8 ± 1 | 10.51 ± 0.13
303.15 K, 25000 kPa | 835.4 ± 1 | 10.82 ± 0.13
303.15 K, 30000 kPa | 837.9 ± 1 | 11.34 ± 0.14
313.15 K, 2000 kPa | 814.9 ± 0.9 | 6.381 ± 0.079
313.15 K, 3970 kPa | 816.3 ± 0.9 | 6.536 ± 0.081
313.15 K, 6020 kPa | 817.6 ± 0.9 | 6.699 ± 0.082
313.15 K, 7990 kPa | 818.9 ± 0.9 | 6.854 ± 0.084
313.15 K, 10020 kPa | 820.2 ± 0.9 | 7.015 ± 0.086
313.15 K, 13000 kPa | 822 ± 0.9 | 7.25 ± 0.089
313.15 K, 16000 kPa | 823.8 ± 0.9 | 7.487 ± 0.092
313.15 K, 18980 kPa | 825.6 ± 0.9 | 7.723 ± 0.095
313.15 K, 22000 kPa | 827.3 ± 1 | 7.961 ± 0.097
313.15 K, 25000 kPa | 829 ± 1 | 8.198 ± 0.1
313.15 K, 28010 kPa | 830.6 ± 1 | 8.436 ± 0.1
313.15 K, 29990 kPa | 831.7 ± 1 | 8.592 ± 0.11
323.15 K, 2010 kPa | 808.3 ± 0.9 | 4.745 ± 0.059
323.15 K, 4020 kPa | 809.7 ± 0.9 | 4.859 ± 0.06
323.15 K, 6020 kPa | 811 ± 0.9 | 4.976 ± 0.062
323.15 K, 8010 kPa | 812.3 ± 0.9 | 5.09 ± 0.063
323.15 K, 10010 kPa | 813.7 ± 0.9 | 5.202 ± 0.065
323.15 K, 13010 kPa | 815.7 ± 0.9 | 5.376 ± 0.067
323.15 K, 16010 kPa | 817.5 ± 0.9 | 5.539 ± 0.069
323.15 K, 19000 kPa | 819.3 ± 0.9 | 5.716 ± 0.071
323.15 K, 22010 kPa | 821.1 ± 0.9 | 5.892 ± 0.073
323.15 K, 25000 kPa | 822.9 ± 1 | 6.07 ± 0.075
323.15 K, 28000 kPa | 824.6 ± 1 | 6.247 ± 0.077
323.15 K, 30000 kPa | 825.7 ± 1 | 6.373 ± 0.079
